The values below are quoted from earlier work in US20210386367A1, “DEVICES AND SYSTEMS FOR GASTROINTESTINAL MICROBIOME DETECTION AND MANIPULATION” (Progenity, Inc., priority 2018, published 2021).

≈ marks a conversion by molar mass, not a printed value. Like-named read-outs stand apart in the source and are kept apart here. Where only a bound is given, the exact number is not on record here.

A word on the MIC50: it is an inhibitory concentration at the 50% level, which refers to growth in some studies and to a panel of isolates in others. A word on the MIC90: it is an inhibitory concentration at the 90% level, which refers to growth in some studies and to a panel of isolates in others.

Test systems include Citrobacter spp.; Proteus mirabilis; Prevotella melanogenica; Bacteroides spp.; Fusobacterium nucleatum; Veillonella spp; Staphylococci; Escherichia coli; Bacteroides ovatus.
Common to all, as to conditions: cited from earlier work
Data set [1] deals with Enterobacteriaceae.
Data set [2] concerns Fusobacterium spp.
Data set [3] has as its system Staphylococcus aureus.
In data set [4] the test system is Fusobacterium spp. The source holds these as a separate data set.
Data set [5] concerns Staphylococcus aureus. The source holds these as a separate data set.
The test system of data set [6] is Enterobacteriaceae. The source holds these as a separate data set.

As to `C[C@@H](O)[C@H]1C(=O)N2C(C(=O)O)=C(S[C@@H]3CN[C@H](C(=O)N(C)C)C3)[C@H](C)[C@H]12` [meropenem], the “% S” value in the data set on Enterobacteriaceae [1] was 97.2%; in the data set on Citrobacter spp., 86.4%; with Proteus mirabilis it was 99.4%; in the data set with Fusobacterium spp [2], 100%; with Prevotella melanogenica, 100%. Further, the MIC50 is 0.03 µg/mL (≈ 0.0782 µM) in the data set on Enterobacteriaceae [1]; at most 0.06 µg/mL in the data set on Citrobacter spp.; 0.06 µg/mL (≈ 0.156 µM) with Proteus mirabilis; 0.125 µg/mL (≈ 0.326 µM) in the data set with Fusobacterium spp [2]; 0.06 µg/mL (≈ 0.156 µM) in the data set with Prevotella melanogenica. For the same compound, the MIC90 in the data set on Enterobacteriaceae [1] was 0.12 µg/mL (≈ 0.313 µM); in the data set with Citrobacter spp., 4 µg/mL (≈ 10.4 µM); in the data set on Proteus mirabilis it was 0.12 µg/mL (≈ 0.313 µM); in the data set with Fusobacterium spp [2], 0.25 µg/mL (≈ 0.652 µM); in the data set with Prevotella melanogenica it was 0.25 µg/mL (≈ 0.652 µM). In addition, the figures for the “MIC range” value with Fusobacterium spp [2] and in the data set on Prevotella melanogenica were at most 0.03 to 0.5 µg/mL and at most 0.03 to 0.25 µg/mL, respectively.
For the compound `CO/N=C(\C(=O)N[C@@H]1C(=O)N2C(C(=O)O)=C(CSc3nc(=O)c(=O)[nH]n3C)CS[C@H]12)c1csc(N)n1` [ceftriaxone], the “% S” value is 54.5% in the data set with Staphylococcus aureus [3], 100% in the data set with Fusobacterium nucleatum, 87% in the data set on Fusobacterium spp [4] and 79% in the data set with Veillonella spp. Besides, the MIC50 in the data set on Staphylococcus aureus [3] was 4 µg/mL (≈ 7.21 µM); in the data set on Bacteroides spp., above 128 µg/mL; in the data set with Fusobacterium nucleatum, 0.125 µg/mL (≈ 0.225 µM); in the data set on Fusobacterium spp [4], 0.5 µg/mL (≈ 0.902 µM); with Veillonella spp, 4 µg/mL (≈ 7.21 µM). The MIC90 in the data set on Staphylococcus aureus [3] was above 8 µg/mL; in the data set with Bacteroides spp., above 128 µg/mL; in the data set with Fusobacterium nucleatum it was 0.5 µg/mL (≈ 0.902 µM); with Fusobacterium spp [4], 32 µg/mL (≈ 57.7 µM); in the data set with Veillonella spp, 8 µg/mL (≈ 14.4 µM). The figures for the “MIC range” value with Fusobacterium nucleatum and in the data set with Veillonella spp were 0.015 to 1 µg/mL and 0.03 to 8 µg/mL, respectively.
With `CO[C@H]1/C=C/O[C@@]2(C)Oc3c(C)c(O)c4c(O)c(c5c(nc6cc(C)ccn65)c4c3C2=O)NC(=O)/C(C)=C\C=C\[C@H](C)[C@H](O)[C@@H](C)[C@@H](O)[C@@H](C)[C@H](OC(C)=O)[C@@H]1C` [rifaximin], the “% S” value in the data set with Staphylococcus aureus [5] is recorded as 100%. Moreover, the MIC50 in the data set with Staphylococcus aureus [5] was at most 0.25 µg/mL; in the data set with Staphylococci, at most 0.06 µg/mL; in the data set with Enterobacteriaceae [6], 32 µg/mL (≈ 40.7 µM); in the data set with Escherichia coli, 32 µg/mL (≈ 40.7 µM); in the data set with Bacteroides ovatus it was 1 µg/mL (≈ 1.27 µM). The MIC90 is at most 0.25 µg/mL in the data set on Staphylococcus aureus [5]; 64 µg/mL (≈ 81.4 µM) in the data set on Staphylococci; above 128 µg/mL in the data set with Enterobacteriaceae [6]; 128 µg/mL (≈ 163 µM) in the data set with Escherichia coli; 1 µg/mL (≈ 1.27 µM) in the data set on Bacteroides ovatus. Further, the “MIC range” value is at most 0.25 µg/mL in the data set with Staphylococcus aureus [5] and at most 0.06 to 64 µg/mL with Staphylococci.
